The target in experiment [1] is T1, interaction between PD-1 and PD-L1 (Homo sapiens, UniProt Q9NZQ7).
T1 construct: purchased Cisbio 64ICP01PEG or 64ICP01PEH
The experiment is described as follows: PD1-PDL1 HTRF binding activity test. Conditions: Cisbio PD-1/PD-L1 binding assay kit; percent inhibition vs DMSO. As to the method:
The effect of compounds of the examples of the present invention on the interaction between PD-1 and PD-L1 was determined by the PD-1/PD-L1 binding assay kit from Cisbio (#64ICP01PEG or 64ICP01PEH). The detailed experimental process was as follows:
1) Pre-diluted compound solution, 4 μL of Tag1-PD-L1 and 4 μL of Tag2-PD1 were added to each well of a 384-well plate;
2) After the mixture was incubated at room temperature for 15 min, 5 μL of anti-Tag1-Eu3+ antibody and 5 μL of anti-Tag2-XL665 antibody were then added;
3) After incubated for 2 hrs at room temperature or overnight at 4° C., plates were read on Envision of Perkin Elmer; and readings at 665 nm and 620 nm were recorded, and the ratio of the two readings was taken as a reading for each well;
4) The reading of each well after compound treatment was compared with the reading of DMSO treated wells to obtain the percent inhibition of the compound; and
5) IC50 values of compounds of the examples of the present invention were determined by non-linear regression analysis of percent inhibition at different compound concentrations.
(Time-resolved FRET reads energy transfer from a long-lived donor to a nearby acceptor.)

Experiment [2] concerns the target T2, interaction between PD-1 and PD-L1 expressed on cell surfaces (Jurkat/NF-κB-luc/PD1 cells cocultured with Raji-PD-L1 cells) (Homo sapiens, UniProt Q9NZQ7).
T2 construct: expressed in transfected cells; host or cells: Raji cells (PD-L1); Jurkat cells (PD-1, NF-κB-luc reporter)
As to the kind of experiment: Jurkat reporter gene cellular assay. In kind it is cell-based. Conditions: OKT3 1 μg/mL stimulation, 6 hrs, activation fold vs DMSO. As to the method:
The effect of compounds of the examples of the present invention on the interaction between PD-1 and PD-L1 expressed on cell surfaces, and the related influence on T cell functions, were determined by a Jurkat reporter gene cellular assay.
Briefly, the reporter gene plasmid of NF-κB-luc and the plasmid of human PD-1 were transfected into Jurkat cells to establish a stably transfected cell line capable of stably expressing both PD-1 and NF-κB-Luc reporter genes; the expression level of PD-1 on the cell surface was confirmed by flow cytometry; and the expression of the reporter gene was confirmed via the response of the reporter gene stimulated by OKT-3 and Raji cells.
In addition, the plasmid of human PD-L1 was transfected into Raji cells to obtain a cell line capable of stably expressing PD-L1. Jurkat/NF-κB-luc/PD1 cells and Raji-PD-L1 cells were then cocultured and stimulated with OKT-3. On this basis, the compounds were added, and the enhancement of the signal pathway of T cell activation by the inhibitory effect of the compounds on the interaction between PD-1 and PD-L1 was evaluated by readings of reporter gene responses. The specific experimental process was as follows:
1) 30 μL of compound or antibody solution was added to each well of a white 96-well plate (Corning, 3610) at different diluted concentrations, and 10 μL of OKT3 (Biolegend, 317326) was then added (the final concentration of OKT3: 1 μg/mL);
2) 20 μL of Raji-PD-L1 cell suspension was added to each well with 5*10^4 cells for each well, and was incubated in an incubator for 20 min;
3) 20 μL of Jurkat/NF-Kb-luc/PD-1 cell suspension was added to each well with 5*10^4 cells for each well, and was well mixed, and 6 hrs later, Bright-glo (Promega, E2620) was applied and plates were read on Envision;
4) The reading of each well treated with the compound was compared with the reading of each well treated with DMSO to obtain the activation fold of the compound; and
5) EC50 values of compounds of the examples of the present invention were determined by non-linear regression analysis of activation folds at different compound concentrations.
Background: A reporter such as luciferase makes a cellular process visible.

The structures appear in SMILES notation.

This passage reports IC50 and EC50 results from patent US20220380342A1, “BIPHENYL DERIVATIVES FOR BLOCKING PD-1/PD-L1 INTERACTION, PREPARATION METHOD THEREFOR AND USE THEREOF” (Abbisko Therapeutics Co., Ltd., priority 2019, published 2022).

In general, IC50 refers to the concentration that gives 50% inhibition. One may read the EC50 as the concentration needed to bring the measured effect to its halfway point. A low value points to higher potency in that assay.

T1 sequence (Q9NZQ7 19-238 limits assumed): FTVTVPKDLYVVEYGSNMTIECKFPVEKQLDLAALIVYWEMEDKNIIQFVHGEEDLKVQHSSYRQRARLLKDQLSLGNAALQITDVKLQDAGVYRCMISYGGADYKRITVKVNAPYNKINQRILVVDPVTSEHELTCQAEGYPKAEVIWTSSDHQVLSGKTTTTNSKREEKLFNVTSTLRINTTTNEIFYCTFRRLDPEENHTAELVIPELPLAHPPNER
T2 sequence (Q9NZQ7 19-290): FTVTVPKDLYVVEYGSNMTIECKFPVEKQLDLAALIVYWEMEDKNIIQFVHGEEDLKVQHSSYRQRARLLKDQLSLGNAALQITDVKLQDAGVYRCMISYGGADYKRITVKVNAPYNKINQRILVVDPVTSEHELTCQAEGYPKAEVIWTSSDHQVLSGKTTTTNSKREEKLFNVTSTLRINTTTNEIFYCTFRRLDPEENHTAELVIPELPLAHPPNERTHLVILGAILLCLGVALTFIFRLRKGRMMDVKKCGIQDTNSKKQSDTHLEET

Take `Cc1c(NC(=O)c2cc(C3CC3)c(CNC(C)CO)cn2)cccc1-c1cccc(NC(=O)c2cc(C3CC3)c(CN3CCCC[C@H]3C(=O)O)cn2)c1C` (stereo in doubt) [Example 3, (S)-1-((4-cyclopropyl-6-((3′-(4-cyclopropyl-5-((((R)-1-hydroxypropan-2-yl)amino)methyl)picolinamido)-2,2′-dimethyl-[1,1′-biphenyl]-3-yl)carbamoyl)pyridin-3-yl)methyl)piperidine-2-carboxylic acid]: the IC50 in experiment [1] turned out to be 1.07 nM. Moreover, the EC50 in experiment [2] stood at 14.9 nM.
Compound `Cc1c(NC(=O)c2cc(C3CC3)c(CNCCO)cn2)cccc1-c1cccc(NC(=O)c2cc(C3CC3)c(CN3CCCC[C@H]3C(=O)O)cn2)c1C` [Example 1, (S)-1-((4-cyclopropyl-6-((3′-(4-cyclopropyl-5-(((2-hydroxyethyl)amino)methyl)picolinamido)-2,2′-dimethyl-[1,1′-biphenyl]-3-yl)carbamoyl)pyridin-3-yl)methyl)piperidine-2-carboxylic acid] had an IC50 in experiment [1] of 1.07 nM. In addition, the half-maximal effective concentration (EC50) in experiment [2] was determined as 6.8 nM.
The like results for `Cc1c(NC(=O)c2cc(C3CC3)c(CN[C@H](C)CO)cn2)cccc1-c1cccc(NC(=O)c2cc(C3CC3)c(CN3CCCC[C@H]3C(=O)O)cn2)c1C` [Example 2, (S)-1-((4-cyclopropyl-6-((3′-(4-cyclopropyl-5-((((R)-1-hydroxypropan-2-yl)amino)methyl)picolinamido)-2,2′-dimethyl-[1,1′-biphenyl]-3-yl)carbamoyl)pyridin-3-yl)methyl)piperidine-2-carboxylic acid] were, in that order, 1.21 nM and 9.2 nM.
In turn, `Cc1c(NC(=O)c2cc(C3CC3)c(CN[C@H]3CCC[C@@H]3O)cn2)cccc1-c1cccc(NC(=O)c2cc(C3CC3)c(CN3CCCC[C@H]3C(=O)O)cn2)c1C` [Example 4, (S)-1-((4-cyclopropyl-6-((3′-(4-cyclopropyl-5-((((1S,2S)-2-hydroxycyclopentyl)amino)methyl)picolinamido)-2, 2′-dimethyl-[1,1′-biphenyl]-3-yl)carbamoyl)pyridin-3-yl)methyl)piperidine-2-carboxylic acid] displayed an IC50 in experiment [1] of 1.02 nM. The EC50 in experiment [2] came out at 3.2 nM.
In the same order, the values of `Cc1c(NC(=O)c2cc(C3CC3)c(CN[C@@H]3CCC[C@H]3O)cn2)cccc1-c1cccc(NC(=O)c2cc(C3CC3)c(CN3CCCC[C@H]3C(=O)O)cn2)c1C` [Example 6, (S)-1-((4-cyclopropyl-6-((3′-(4-cyclopropyl-5-((((1R,2R)-2-hydroxycyclopentyl)amino)methyl)picolinamido)-2, 2′-dimethyl-[1,1′-biphenyl]-3-yl)carbamoyl)pyridin-3-yl)methyl)piperidine-2-carboxylic acid] are 1.69 nM and 49.3 nM.
The like results for `CNCc1cnc(C(=O)Nc2cccc(-c3cccc(NC(=O)c4cc(C5CC5)c(CN5CCCC[C@H]5C(=O)O)cn4)c3C)c2C)cc1C1CC1` [Example 7, (S)-1-((4-cyclopropyl-6-((3′-(4-cyclopropyl-5-((methylamino)methyl)picolinamido)-2,2′-dimethyl-[1,1′-biphenyl]-3-yl)carbamoyl)pyridin-3-yl)methyl) piperidine-2-carboxylic acid] were, in that order, 0.49 nM and 24.1 nM.
In experiment [1], `CCNCc1cnc(C(=O)Nc2cccc(-c3cccc(NC(=O)c4cc(C5CC5)c(CN5CCCC[C@H]5C(=O)O)cn4)c3C)c2C)cc1C1CC1` [Example 8, (S)-1-((4-cyclopropyl-6-((3′-(4-cyclopropyl-5-((ethylamino)methyl)picolinamido)-2,2′-dimethyl-[1,1′-biphenyl]-3-yl)carbamoyl)pyridin-3-yl)methyl) piperidine-2-carboxylic acid] yielded a concentration for half-maximal inhibition (IC50) of 1.27 nM. In experiment [2], this compound registered an EC50 of 23.8 nM.
As to `Cc1c(NC(=O)c2cc(C3CC3)c(CNC(C)C)cn2)cccc1-c1cccc(NC(=O)c2cc(C3CC3)c(CN3CCCC[C@H]3C(=O)O)cn2)c1C` [Example 9, (S)-1-((4-cyclopropyl-6-((3′-(4-cyclopropyl-5-((isopropylamino)methyl)picolinamido)-2,2′-dimethyl-[1,1′-biphenyl]-3-yl)carbamoyl)pyridin-3-yl)methyl) piperidine-2-carboxylic acid], in experiment [1], the IC50 was found to be 5.1 nM. The compound also had an EC50 in experiment [2] of 33.9 nM.
`Cc1c(NC(=O)c2cc(C3CC3)c(CNC3CC3)cn2)cccc1-c1cccc(NC(=O)c2cc(C3CC3)c(CN3CCCC[C@H]3C(=O)O)cn2)c1C` [Example 10, (S)-1-((4-cyclopropyl-6-((3′-(4-cyclopropyl-5-((cyclopropylamino)methyl)picolinamido)-2,2′-dimethyl-[1,1′-biphenyl]-3-yl)carbamoyl)pyridin-3-yl)methyl) piperidine-2-carboxylic acid]: the IC50 in experiment [1] is 3.38 nM. Also, the EC50 in experiment [2] was 120 nM.
`Cc1c(NC(=O)c2cc(C3CC3)c(CNC3CCCC3)cn2)cccc1-c1cccc(NC(=O)c2cc(C3CC3)c(CN3CCCC[C@H]3C(=O)O)cn2)c1C` [Example 11, (S)-1-((4-cyclopropyl-6-((3′-(4-cyclopropyl-5-((cyclopentylamino)methyl)picolinamido)-2,2′-dimethyl-[1,1′-biphenyl]-3-yl)carbamoyl)pyridin-3-yl)methyl) piperidine-2-carboxylic acid] returned an IC50 in experiment [1] of 3.19 nM. Besides, in experiment [2], the EC50 was 14.5 nM.
The like results for `Cc1c(NC(=O)c2cc(C3CC3)c(CN3CCCC3)cn2)cccc1-c1cccc(NC(=O)c2cc(C3CC3)c(CN3CCCC[C@H]3C(=O)O)cn2)c1C` [Example 12] were, in that order, 1.02 nM and 10.6 nM.
In the same order, the values of `Cc1c(NC(=O)c2cc(C3CC3)c(CN3CC[C@@H](O)C3)cn2)cccc1-c1cccc(NC(=O)c2cc(C3CC3)c(CN3CCCC[C@H]3C(=O)O)cn2)c1C` [Example 13, (S)-1-((4-cyclopropyl-6-((3′-(4-cyclopropyl-5-(((R)-3-hydroxypyrrolidin-1-yl)methyl)picolinamido)-2,2′-dimethyl-[1,1′-biphenyl]-3-yl)carbamoyl)pyridin-3-yl)methyl)piperidine-2-carboxylic acid] are 1.48 nM and 11.8 nM.
`Cc1c(NC(=O)c2cc(C3CC3)c(CN3CC[C@H](O)C3)cn2)cccc1-c1cccc(NC(=O)c2cc(C3CC3)c(CN3CCCC[C@H]3C(=O)O)cn2)c1C` [Example 14, (S)-1-((4-cyclopropyl-6-((3′-(4-cyclopropyl-5-(((S)-3-hydroxypyrrolidin-1-yl)methyl)picolinamido)-2,2′-dimethyl-[1,1′-biphenyl]-3-yl)carbamoyl)pyridin-3-yl)methyl)piperidine-2-carboxylic acid]: the IC50 in experiment [1] came out at 1.76 nM. The compound also gave a half-maximal effective concentration (EC50) in experiment [2] of 8.2 nM.
In experiment [1], `Cc1c(NC(=O)c2cc(C3CC3)c(CN3CC(C)(O)C3)cn2)cccc1-c1cccc(NC(=O)c2cc(C3CC3)c(CN3CCCC[C@H]3C(=O)O)cn2)c1C` [Example 15, (S)-1-((4-cyclopropyl-6-((3′-(4-cyclopropyl-5-((3-hydroxy-3-methylazetidin-1-yl)methyl)picolinamido)-2,2′-dimethyl-[1,1′-biphenyl]-3-yl)carbamoyl)pyridin-3-yl)methyl)piperidine-2-carboxylic acid] showed an IC50 of 0.68 nM. The compound further returned an EC50 in experiment [2] of 15.1 nM.
Compound `CCOC(=O)[C@@H](CO)NCc1cnc(C(=O)Nc2cccc(-c3cccc(NC(=O)c4cc(C5CC5)c(CN5CC(C)(O)C5)cn4)c3C)c2C)cc1C1CC1` [Example 36-1, ethyl ((4-cyclopropyl-6-((3′-(4-cyclopropyl-5-((3-hydroxy-3-methylazetidin-1-yl)methyl)picolinamido)-2,2′-dimethyl-[1,1′-biphenyl]-3-yl)carbamoyl)pyridin-3-yl)methyl)-D-serinate] displayed an IC50 in experiment [1] of 64.3 nM.
